Results as given in PubChem BioAssay (NCI).
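Briefly, cells in 96-well plates were exposed to five compound concentrations for 48 h, and endpoints were estimated by linear interpolation. TGI is the concentration that stops growth completely.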

What was measured:
Test in all cases: NCI tumour cell line growth inhibition, 48 h
PC-3 prostate = tested on: PC-3 prostate
SR leukemia = tested on: SR leukemia
HOP-62 NSCLC = tested on: HOP-62 NSCLC
UO-31 renal = tested on: UO-31 renal
NCI-H23 lung = tested on: NCI-H23 lung
OVCAR-4 ovarian = tested on: OVCAR-4 ovarian
EKVX NSCLC = tested on: EKVX NSCLC
HT29 colon = tested on: HT29 colon
MALME-3M melanoma = tested on: MALME-3M melanoma
OVCAR-5 ovarian = tested on: OVCAR-5 ovarian
SW-620 colon = tested on: SW-620 colon
SN12C renal = tested on: SN12C renal
DU-145 prostate = tested on: DU-145 prostate
UACC-257 melanoma = tested on: UACC-257 melanoma
SNB-19 CNS = tested on: SNB-19 CNS
MDA-MB-435 = tested on: MDA-MB-435
SNB-75 CNS = tested on: SNB-75 CNS
IGROV1 ovarian = tested on: IGROV1 ovarian
SK-MEL-2 melanoma = tested on: SK-MEL-2 melanoma
OVCAR-8 ovarian = tested on: OVCAR-8 ovarian
MDA-MB-231 breast = tested on: MDA-MB-231 breast
CCRF-CEM leukemia = tested on: CCRF-CEM leukemia
MOLT-4 leukemia = tested on: MOLT-4 leukemia
T-47D breast = tested on: T-47D breast
NCI/ADR-RES ovarian = tested on: NCI/ADR-RES ovarian
HS 578T breast = tested on: HS 578T breast
M14 melanoma = tested on: M14 melanoma
K-562 leukemia = tested on: K-562 leukemia
HCT-15 colon = tested on: HCT-15 colon
COLO 205 colon = tested on: COLO 205 colon
HCC-2998 colon = tested on: HCC-2998 colon
HL-60(TB) leukemia = tested on: HL-60(TB) leukemia
SK-MEL-5 melanoma = tested on: SK-MEL-5 melanoma
ACHN renal = tested on: ACHN renal
UACC-62 melanoma = tested on: UACC-62 melanoma
HCT-116 colon = tested on: HCT-116 colon
786-0 renal = tested on: 786-0 renal
HOP-92 NSCLC = tested on: HOP-92 NSCLC
MDA-N = tested on: MDA-N
NCI-H226 lung = tested on: NCI-H226 lung
NCI-H460 lung = tested on: NCI-H460 lung
BT-549 breast = tested on: BT-549 breast
SK-MEL-28 melanoma = tested on: SK-MEL-28 melanoma
LOX IMVI melanoma = tested on: LOX IMVI melanoma
TK-10 renal = tested on: TK-10 renal
A498 renal = tested on: A498 renal
U251 CNS = tested on: U251 CNS
KM12 colon = tested on: KM12 colon
OVCAR-3 ovarian = tested on: OVCAR-3 ovarian
A549 NSCLC = tested on: A549 NSCLC
CAKI-1 renal = tested on: CAKI-1 renal
SF-268 CNS = tested on: SF-268 CNS
SK-OV-3 ovarian = tested on: SK-OV-3 ovarian
SF-539 CNS = tested on: SF-539 CNS
SF-295 CNS = tested on: SF-295 CNS
MCF7 breast = tested on: MCF7 breast
RPMI-8226 leukemia = tested on: RPMI-8226 leukemia
NCI-H522 lung = tested on: NCI-H522 lung

SMILES: COc1ccc(CCCNC(=O)Cc2ccccc2CO)cc1OC
- TGI (PC-3 prostate): > 100 µM
- TGI (SR leukemia): > 100 µM
- TGI (HOP-62 NSCLC): > 100 µM
- TGI (UO-31 renal): > 100 µM
- TGI (NCI-H23 lung): > 100 µM
- TGI (OVCAR-4 ovarian): > 100 µM
- TGI (EKVX NSCLC): > 100 µM
- TGI (HT29 colon): > 100 µM
- TGI (MALME-3M melanoma): > 100 µM
- TGI (OVCAR-5 ovarian): > 100 µM
- TGI (SW-620 colon): > 100 µM
- TGI (SN12C renal): > 100 µM
- TGI (DU-145 prostate): > 100 µM
- TGI (UACC-257 melanoma): > 100 µM
- TGI (SNB-19 CNS): > 100 µM
- TGI (MDA-MB-435): > 100 µM
- TGI (SNB-75 CNS): > 100 µM
- TGI (IGROV1 ovarian): > 100 µM
- TGI (SK-MEL-2 melanoma): > 100 µM
- TGI (OVCAR-8 ovarian): > 100 µM
- TGI (MDA-MB-231 breast): > 100 µM
- TGI (CCRF-CEM leukemia): > 100 µM
- TGI (MOLT-4 leukemia): > 100 µM
- TGI (T-47D breast): > 100 µM
- TGI (NCI/ADR-RES ovarian): > 100 µM
- TGI (HS 578T breast): > 100 µM
- TGI (M14 melanoma): > 100 µM
- TGI (K-562 leukemia): > 100 µM
- TGI (HCT-15 colon): > 100 µM
- TGI (COLO 205 colon): > 100 µM
- TGI (HCC-2998 colon): > 100 µM
- TGI (HL-60(TB) leukemia): > 100 µM
- TGI (SK-MEL-5 melanoma): > 100 µM
- TGI (ACHN renal): > 100 µM
- TGI (UACC-62 melanoma): > 100 µM
- TGI (HCT-116 colon): > 100 µM
- TGI (786-0 renal): > 100 µM
- TGI (HOP-92 NSCLC): > 100 µM
- TGI (MDA-N): > 100 µM
- TGI (NCI-H226 lung): > 100 µM
- TGI (NCI-H460 lung): > 100 µM
- TGI (BT-549 breast): > 100 µM
- TGI (SK-MEL-28 melanoma): > 100 µM
- TGI (LOX IMVI melanoma): > 100 µM
- TGI (TK-10 renal): > 100 µM
- TGI (A498 renal): > 100 µM
- TGI (U251 CNS): > 100 µM
- TGI (KM12 colon): > 100 µM
- TGI (OVCAR-3 ovarian): > 100 µM
- TGI (A549 NSCLC): > 100 µM
- TGI (CAKI-1 renal): > 100 µM

SMILES: CCCCc1ccc(N2C(=O)c3cc([N+](=O)[O-])cnc3S2(=O)=O)cc1
- TGI (PC-3 prostate): > 100 µM
- TGI (SR leukemia): > 100 µM
- TGI (HOP-62 NSCLC): > 100 µM
- TGI (UO-31 renal): > 100 µM
- TGI (NCI-H23 lung): > 100 µM
- TGI (OVCAR-4 ovarian): > 100 µM
- TGI (EKVX NSCLC): > 100 µM
- TGI (HT29 colon): > 100 µM
- TGI (MALME-3M melanoma): > 100 µM
- TGI (SF-268 CNS): > 100 µM
- TGI (OVCAR-5 ovarian): > 100 µM
- TGI (SW-620 colon): > 100 µM
- TGI (SK-OV-3 ovarian): > 100 µM
- TGI (SN12C renal): > 100 µM
- TGI (UACC-257 melanoma): > 100 µM
- TGI (SNB-19 CNS): > 100 µM
- TGI (MDA-MB-435): > 100 µM
- TGI (SNB-75 CNS): > 100 µM
- TGI (IGROV1 ovarian): > 100 µM
- TGI (SF-539 CNS): > 100 µM
- TGI (SK-MEL-2 melanoma): 59 µM
- TGI (OVCAR-8 ovarian): > 100 µM
- TGI (MDA-MB-231 breast): > 100 µM
- TGI (SF-295 CNS): > 100 µM
- TGI (MOLT-4 leukemia): > 100 µM
- TGI (T-47D breast): > 100 µM
- TGI (NCI/ADR-RES ovarian): > 100 µM
- TGI (HS 578T breast): > 100 µM
- TGI (M14 melanoma): > 100 µM
- TGI (K-562 leukemia): > 100 µM
- TGI (HCT-15 colon): > 100 µM
- TGI (COLO 205 colon): > 100 µM
- TGI (HCC-2998 colon): > 100 µM
- TGI (MCF7 breast): > 100 µM
- TGI (SK-MEL-5 melanoma): > 100 µM
- TGI (ACHN renal): > 100 µM
- TGI (UACC-62 melanoma): > 100 µM
- TGI (HCT-116 colon): > 100 µM
- TGI (786-0 renal): > 100 µM
- TGI (HOP-92 NSCLC): 8.03 µM
- TGI (MDA-N): > 100 µM
- TGI (NCI-H226 lung): > 100 µM
- TGI (NCI-H460 lung): > 100 µM
- TGI (RPMI-8226 leukemia): > 100 µM
- TGI (BT-549 breast): > 100 µM
- TGI (SK-MEL-28 melanoma): > 100 µM
- TGI (LOX IMVI melanoma): > 100 µM
- TGI (TK-10 renal): > 100 µM
- TGI (A498 renal): > 100 µM
- TGI (U251 CNS): > 100 µM
- TGI (KM12 colon): > 100 µM
- TGI (OVCAR-3 ovarian): > 100 µM
- TGI (A549 NSCLC): > 100 µM
- TGI (CAKI-1 renal): > 100 µM

SMILES: CN(C)CCNC(=O)c1cccc(NC(=O)c2ccccc2)c1[N+](=O)[O-]
- TGI (PC-3 prostate): > 100 µM
- TGI (HOP-62 NSCLC): > 100 µM
- TGI (UO-31 renal): > 100 µM
- TGI (NCI-H23 lung): > 100 µM
- TGI (HT29 colon): > 100 µM
- TGI (MALME-3M melanoma): 27.3 µM
- TGI (SF-268 CNS): > 100 µM
- TGI (OVCAR-5 ovarian): > 100 µM
- TGI (SW-620 colon): > 100 µM
- TGI (SK-OV-3 ovarian): > 100 µM
- TGI (SN12C renal): > 100 µM
- TGI (UACC-257 melanoma): > 100 µM
- TGI (SNB-19 CNS): > 100 µM
- TGI (MDA-MB-435): > 100 µM
- TGI (NCI-H522 lung): > 100 µM
- TGI (SNB-75 CNS): > 100 µM
- TGI (IGROV1 ovarian): > 100 µM
- TGI (SK-MEL-2 melanoma): > 100 µM
- TGI (OVCAR-8 ovarian): > 100 µM
- TGI (MDA-MB-231 breast): > 100 µM
- TGI (SF-295 CNS): > 100 µM
- TGI (CCRF-CEM leukemia): > 100 µM
- TGI (MOLT-4 leukemia): > 100 µM
- TGI (T-47D breast): > 100 µM
- TGI (NCI/ADR-RES ovarian): > 100 µM
- TGI (HS 578T breast): > 100 µM
- TGI (M14 melanoma): > 100 µM
- TGI (HCT-15 colon): > 100 µM
- TGI (COLO 205 colon): > 100 µM
- TGI (HCC-2998 colon): > 100 µM
- TGI (MCF7 breast): > 100 µM
- TGI (HL-60(TB) leukemia): > 100 µM
- TGI (SK-MEL-5 melanoma): > 100 µM
- TGI (ACHN renal): > 100 µM
- TGI (UACC-62 melanoma): > 100 µM
- TGI (HCT-116 colon): > 100 µM
- TGI (786-0 renal): > 100 µM
- TGI (MDA-N): > 100 µM
- TGI (NCI-H226 lung): > 100 µM
- TGI (NCI-H460 lung): > 100 µM
- TGI (BT-549 breast): > 100 µM
- TGI (SK-MEL-28 melanoma): > 100 µM
- TGI (TK-10 renal): > 100 µM
- TGI (A498 renal): > 100 µM
- TGI (U251 CNS): > 100 µM
- TGI (KM12 colon): > 100 µM
- TGI (OVCAR-3 ovarian): 64.8 µM
- TGI (A549 NSCLC): > 100 µM
- TGI (CAKI-1 renal): > 100 µM
